“Also recorded” adds a separate entry of the source.
Each substance was assayed on NCI-60 cell lines.
Type: cell-based, human

| Substance | Cell Line (NCI-60 cell line the peptide and its motif are associated with) | Cell Line (NCI-60 cell line the peptide is associated with) | Cell Line with which the peptide (and its tripeptide motif) is associated | Cell Line the peptide is associated with (peptide recovered from phage library selection on this NCI-60 cell line) |
| --- | --- | --- | --- | --- |
| LPGRLRV | OVCAR-5 Ovarian | – | – | – |
| LLSSRRC | SK-MEL-2 Melanoma | – | – | – |
| AVEGRGS | – | HCT-116 Colon | – | – |
| YLGLGGL | DU-145 Prostate | – | – | – |
| GAGGMAR | – | – | RPMI-8226-Leukemia | – |
| GVRWNWS | – | – | – | RXF393 Renal |
| LRVYGEG | – | SNB-75 CNS | – | – |
| LRSSGAT | – | – | H322-Lung | – |
| FSNARGY | DU-145 Prostate | – | – | – |
| GRLMPGG | – | – | – | ACHN Renal |
| AECCGGL | – | – | – | ACHN Renal |
| PRGLGVG | SK-MEL-2 Melanoma | – | – | – |
| NVSRAVG | OVCAR-8 Ovarian | – | – | – |
| LLSFLGR | – | – | Molt-4-Leukemia | – |
| HSESAAV | – | – | Hop-62-Lung | – |
| SGARLRS | – | – | – | T-47D Breast |
| SSGGVLG | – | – | H460-Lung | – |
| GRLWSRV | – | – | Hop-92-Lung | – |
| LPLLRGI | – | – | HL-60-Leukemia | – |
| GGSRAAE | – | – | H322-Lung | – |
| TDGVRAF | UACC 257 Melanoma | – | – | – |
| GVRPFPR | – | – | Hop-62-Lung | – |

| Substance | Cell Line (NCI-60 cell line the peptide and its motif are associated with) | Cell Line (NCI-60 cell line the peptide is associated with) | Cell Line with which the peptide (and its tripeptide motif) is associated | Cell Line the peptide is associated with (peptide recovered from phage library selection on this NCI-60 cell line) |
| --- | --- | --- | --- | --- |
| RKEALRV | – | – | – | CAIK-1 Renal |
| RVGTLRV | SK-OV-3-3 Ovarian | – | – | – |
| GGFLLVS | SK-OV-3-3 Ovarian | – | – | – |
| VRGSRWR | – | HT-29 Colon | – | – |
| GLVTAPL | – | COLO-205-Colon | – | – |
| GVSGTVS | IGROV1 Ovarian | – | – | – |
| SLVSERA | – | – | – | HS 578 T Breast |
| RGSRWSS | – | – | – | BT-549 Breast |
| ATLDGVS | SK-OV-3-3 Ovarian | – | – | – |
| AAVTVVR | – | KM-12C Colon | – | – |
| VRSSGVL | SK-OV-3-3 Ovarian | – | – | – |
| LLRGLRP | – | – | – | TK-10 Renal |
| GRGGSGY | – | HT-29 Colon | – | – |
| AGLWPWN | – | – | – | CAIK-1 Renal |
| SNGLRVV | – | – | – | ACHN Renal |
| LLRPGTV | – | HCC-2998-Colon | – | – |
| SSVASLV | – | SNB-19 CNS; also recorded: SF-539 CNS | – | – |
| MQLRGAV | OVCAR-4 Ovarian | – | – | – |
| VEEGRLR | – | SW620-Colon | – | – |
| NYMGPSA | – | – | A549-Lung | – |
| GAVDGSR | – | – | RPMI-8226-Leukemia | – |
| SVVRRGS | – | – | – | ACHN Renal |

| Substance | Cell Line (NCI-60 cell line the peptide and its motif are associated with) | Cell Line (NCI-60 cell line the peptide is associated with) | Cell Line with which the peptide (and its tripeptide motif) is associated | Cell Line the peptide is associated with (peptide recovered from phage library selection on this NCI-60 cell line) |
| --- | --- | --- | --- | --- |
| TAAGSSF | – | – | – | HS 578 T Breast |
| AFFMGLR | – | – | – | ACHN Renal |
| RMGFGLR | – | LOX-IMVI Melanoma | – | – |
| GSVLPVL | SK-OV-3-3 Ovarian | – | – | – |
| VLFSAGS | – | – | K-562-Leukemia | – |
| RIGAVWY | – | HT-29 Colon | – | – |
| RLWGSVV | SK-OV-3-3 Ovarian | – | – | – |
| AGRICEG | – | – | CCRF-CEM Leukemia | – |
| RRGLGDA | – | – | – | TK-10 Renal |
| RAVGRQL | OVCAR-5 Ovarian | – | – | – |
| SMRGVLS | – | – | – | BT-549 Breast |
| VAGRLQM | OVCAR-4 Ovarian | – | – | – |
| PKAGRGS | – | – | Hop-62-Lung | – |
| LRYDLRS | – | – | RPMI-8226-Leukemia | – |
| GEHGLGA | – | – | H23-Lung | – |
| RASCFWD | – | – | – | SN12C Renal |
| GGGSDGV | – | – | CCRF-CEM Leukemia | – |
| EAVSRGS | – | – | K-562-Leukemia | – |
| AHYTLRS | – | COLO-205-Colon | – | – |
| GGRVRGG | OVCAR-4 Ovarian | – | – | – |
| FQRSGRL | SK-MEL-28 Melanoma | – | – | – |
| SITRGGL | DU-145 Prostate | – | – | – |

| Substance | Cell Line (NCI-60 cell line the peptide and its motif are associated with) | Cell Line (NCI-60 cell line the peptide is associated with) | Cell Line with which the peptide (and its tripeptide motif) is associated | Cell Line the peptide is associated with (peptide recovered from phage library selection on this NCI-60 cell line) |
| --- | --- | --- | --- | --- |
| GLVRRVV | – | – | – | CAIK-1 Renal |
| VGSSHGL | SK-MEL-28 Melanoma | – | – | – |
| DNCERGV | UACC62 Melanoma | – | – | – |
| FAGYGVL | – | SNB-19 CNS; also recorded: SF-539 CNS | – | – |
| SLYRGRL | – | – | – | T-47D Breast |
| FMTYGSG | OVCAR-4 Ovarian | – | – | – |
| GLREAHV | UACC62 Melanoma | – | – | – |
| GLGIMGP | – | – | K-562-Leukemia | – |
| GLRRDNG | OVCAR-3 Ovarian | – | – | – |
| VGRGRLH | – | – | EKVX-Lung | – |
| MDGVSTE | – | – | – | A498 Renal |
| WVSGRLG | – | COLO-205-Colon | – | – |
| REVPGLR | – | SNB-19 CNS; also recorded: SF-539 CNS | – | – |
| GSNGSSH | OVCAR-8 Ovarian | – | – | – |
| WTKRGSV | – | – | K-562-Leukemia | – |
| GSARGML | – | – | SR Leukemia | – |
| GAVVKPI | – | – | A549-Lung | – |
| SRFGPSV | – | – | H322-Lung | – |
| LGGLSER | SK-OV-3-3 Ovarian | – | – | – |
| TAGSSRL | – | – | H322-Lung | – |
| AGLSGGT | – | – | EKVX-Lung | – |
| RRLSYRE | OVCAR-8 Ovarian | – | – | – |

| Substance | Cell Line (NCI-60 cell line the peptide and its motif are associated with) | Cell Line (NCI-60 cell line the peptide is associated with) | Cell Line with which the peptide (and its tripeptide motif) is associated | Cell Line the peptide is associated with (peptide recovered from phage library selection on this NCI-60 cell line) |
| --- | --- | --- | --- | --- |
| RGSVRVL | – | – | HL-60-Leukemia | – |
| RGSFGLG | – | – | – | T-47D Breast |
| GVGGGAG | – | – | – | MDA-MB-435-Breast |
| ARAIGLG | – | – | Molt-4-Leukemia | – |
| WLDAAVK | – | LOX-IMVI Melanoma | – | – |
| RVSSETF | A498 Renal | – | – | – |
| VIGSRLS | – | – | EKVX-Lung | – |
| RVGRLGG | – | – | A549-Lung | – |
| HAPGLRV | – | MALME-3M Melanoma | – | – |
| GVSKVRA | – | – | A549-Lung | – |
| LGMGRGV | – | – | – | SN12C Renal |
| VLSAVSS | – | SNB-19 CNS; also recorded: SF-539 CNS | – | – |
| GGRLLRA | DU-145 Prostate | – | – | – |
| TGGSLGA | – | – | EKVX-Lung | – |
| IYPGAVL | OVCAR-5 Ovarian | – | – | – |
| SQSGGRH | – | – | Molt-4-Leukemia | – |
| VYWWGVS | – | – | – | A498 Renal |
| CRGSIGA | – | – | – | BT-549 Breast |
| WLLSARL | – | HCC-2998-Colon | – | – |
| RASRIGL | – | – | – | TK-10 Renal |
| SGVSGLS | – | – | EKVX-Lung | – |
| RAAVIHT | – | MALME-3M Melanoma | – | – |

| Substance | Cell Line (NCI-60 cell line the peptide and its motif are associated with) | Cell Line (NCI-60 cell line the peptide is associated with) | Cell Line with which the peptide (and its tripeptide motif) is associated | Cell Line the peptide is associated with (peptide recovered from phage library selection on this NCI-60 cell line) |
| --- | --- | --- | --- | --- |
| VGSTRSS | SK-MEL-28 Melanoma | – | – | – |
| GWTMAAS | – | – | – | TK-10 Renal |
| IGGRWVV | SK-OV-3-3 Ovarian | – | – | – |
| GTLGGRV | – | HT-29 Colon | – | – |
| RKPGGGR | – | HT-29 Colon | – | – |
| WYGGRGN | OVCAR-4 Ovarian | – | – | – |
| PQGPSSV | – | – | – | ACHN Renal |
| LEVGRLF | SK-OV-3-3 Ovarian | – | – | – |
| KVSVASL | SK-MEL-5 Melanoma | – | – | – |
| AALLRAV | OVCAR-4 Ovarian | – | – | – |
| RGSLLWA | UACC 257 Melanoma | – | – | – |
| NELRVCR | – | – | – | SN12C Renal |
| GEGRLCG | – | – | – | CAIK-1 Renal |
| SGHGVSA | – | – | H23-Lung | – |
| SRLSYRS | – | – | A549-Lung | – |
| SRLSYYA | – | KM-12C Colon | – | – |
| LSAVSVK | SK-MEL-5 Melanoma | – | – | – |
| IGAVSGW | – | SNB-75 CNS | – | – |
| LRSGAGS | – | – | Molt-4-Leukemia | – |
| HGYRAGG | – | – | Hop-62-Lung | – |
| EAGPRGV | – | – | – | BT-549 Breast |
| TDLAGLH | – | – | RPMI-8226-Leukemia | – |

Reference: patent publication US7781565B2 (priority 2006, dated 2010)
